# Experiments:
# [1] = biological target: T1, human norepinephrine transporter (Homo sapiens, UniProt P23975); assay: hNET receptor binding ([125I]-RTI-55, membranes of transfected HEK-293 cells); conditions: 50 pM [125I]-RTI-55, 90 min room temperature; IC50 converted by Cheng-Prusoff
# T1 construct: host or cells: HEK-293
# Description: (§1) Cell pastes of HEK-293 cells transfected with the human norepinephrine transporter were supplied by the Pfizer Ann Arbor Protein Expression and Production group. Pellets were resuspended in 400 to 700 ml of Krebs-HEPES assay buffer (25 mM HEPES, 122 mM NaCl, 3 mM KCl, 1.2 mM MgSO4, 1.3 mM CaCl2, and 11 mM glucose, pH 7.4) with a Polytron homogenizer at setting 7 for 30 sec. Aliquots of membranes (5 mg/ml protein) were stored in liquid nitrogen until used.
# The binding assay was set up in Beckman deep-well polypropylene plates with a total volume of 250 μl containing: drug (10^−5M to 10^−12M), cell membranes, and 50 pM [^125I]-RTI-55 (Perkin Elmer, NEX-272; specific activity 2200 Ci/mmol). The reaction was incubated by gentle agitation for 90 min at room temperature and was terminated by filtration through Whatman GF/C filter plates using a Brandel 96-well plate harvester. Scintillation fluid (100 μl) was added to each well, and bound [^125I]-RTI-55 was determined using a Wallac Trilux Beta Plate Counter. Test compounds were run in duplicate, and specific binding was defined as the difference between binding in the presence and absence of 10 μM desipramine.
# Excel and GraphPad Prism software were used for data calculation and analysis. IC50 values were converted to Ki values using the Cheng-Prusoff equation. The Ki values for the hNET are reported below in Table 1.
# [2] = biological target: T2, human serotonin transporter (Homo sapiens, UniProt P31645); assay: hSERT receptor binding ([125I]-RTI-55, membranes of transfected HEK-293 cells); conditions: 50 pM [125I]-RTI-55, 90 min room temperature; IC50 converted by Cheng-Prusoff
# T2 construct: host or cells: HEK-293
# Description: as §1, with “serotonin” for “norepinephrine”, “Group.” for “group.”, “mL” for “ml”, “Setting” for “setting”, “seconds.” for “sec.”, “(˜2.5 mg/mL” for “(5 mg/ml”
# Assays were set up in FlashPlates pre-coated with 0.1% PEI in a total volume of 250 μL containing: drug (10^−5M to 10^−12M), cell membranes, and 50 pM [^125I]-RTI-55 (Perkin Elmer, NEX-272; specific activity 2200 Ci/mmol). The reaction was incubated and gently agitated for 90 minutes at room temperature, and terminated by removal of assay volume. Plates were covered, and bound [^125I]-RTI-55 was determined using a Wallac Trilux Beta Plate Counter. Test compounds were run in duplicate, and specific binding was defined as the difference between binding in the presence and absence of 10 μM citalopram.
# Excel and GraphPad Prism software were used for data calculation and analysis. IC50 values were converted to Ki values using the Cheng-Prusoff equation. The Ki values for the hSERT are reported below in Table 1.
# T1 sequence (P23975 whole entry): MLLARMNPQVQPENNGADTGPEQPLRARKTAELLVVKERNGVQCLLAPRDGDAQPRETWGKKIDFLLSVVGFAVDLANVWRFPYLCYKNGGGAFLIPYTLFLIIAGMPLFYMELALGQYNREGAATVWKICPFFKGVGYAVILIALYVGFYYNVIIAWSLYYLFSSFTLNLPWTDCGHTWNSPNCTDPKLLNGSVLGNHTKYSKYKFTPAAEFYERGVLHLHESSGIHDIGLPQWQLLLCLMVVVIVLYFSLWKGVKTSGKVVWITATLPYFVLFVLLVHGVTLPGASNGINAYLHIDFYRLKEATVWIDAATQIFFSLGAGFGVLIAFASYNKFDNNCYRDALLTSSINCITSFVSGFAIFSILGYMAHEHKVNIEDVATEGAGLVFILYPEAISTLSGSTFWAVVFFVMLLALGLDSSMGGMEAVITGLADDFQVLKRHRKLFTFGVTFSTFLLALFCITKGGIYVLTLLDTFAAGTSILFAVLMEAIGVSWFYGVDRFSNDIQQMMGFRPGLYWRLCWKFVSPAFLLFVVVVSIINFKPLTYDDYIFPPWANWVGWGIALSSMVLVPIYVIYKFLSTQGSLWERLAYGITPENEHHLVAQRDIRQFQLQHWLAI
# T2 sequence (P31645 whole entry): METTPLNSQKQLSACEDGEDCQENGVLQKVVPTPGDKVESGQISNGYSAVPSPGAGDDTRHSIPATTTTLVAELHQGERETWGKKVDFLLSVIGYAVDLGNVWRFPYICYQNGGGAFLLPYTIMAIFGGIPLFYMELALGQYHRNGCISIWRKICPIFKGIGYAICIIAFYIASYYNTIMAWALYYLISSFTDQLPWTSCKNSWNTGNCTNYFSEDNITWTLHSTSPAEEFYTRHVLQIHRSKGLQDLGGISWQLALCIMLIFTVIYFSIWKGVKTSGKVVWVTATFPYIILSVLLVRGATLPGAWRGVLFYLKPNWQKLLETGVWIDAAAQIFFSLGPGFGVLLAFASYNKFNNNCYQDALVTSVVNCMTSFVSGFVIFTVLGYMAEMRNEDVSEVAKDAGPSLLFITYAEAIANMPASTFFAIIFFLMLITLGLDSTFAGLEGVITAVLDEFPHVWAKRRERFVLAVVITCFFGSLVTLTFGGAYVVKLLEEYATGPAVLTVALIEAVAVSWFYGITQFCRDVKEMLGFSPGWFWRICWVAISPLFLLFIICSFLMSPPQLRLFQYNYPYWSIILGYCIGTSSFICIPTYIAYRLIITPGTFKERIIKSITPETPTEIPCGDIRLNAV
Ki [1] [nM],Ki [2] [nM],Compound
32.9,114,"Cc1cc(F)ccc1-c1nc(N2CCNCC2)nc2cc(F)ccc12 [Example 117, 7-Fluoro-4-(4-fluoro-2-methyl-phenyl)-2-piperazin-1-yl-quinazoline]"
150,> 10000,"CNC1CCN(c2nc(-c3ccc(F)cc3F)c3ccccc3n2)CC1 [Example 153, {1-[4-(2,4-Difluoro-phenyl)-quinazolin-2-yl]-piperidin-4-yl}-methyl-amine]"
221,6980,"Fc1cccc(-c2nc(NC3CCNCC3)nc3ccccc23)c1F [Example 156, [4-(2,3-Difluoro-phenyl)-quinazolin-2-yl]-piperidin-4-yl-amine]"
58.1,5370,"Fc1ccc(-c2nc(NC3CCNCC3)nc3ccccc23)c(F)c1 [Example 154, [4-(2,4-Difluoro-phenyl)-quinazolin-2-yl]-piperidin-4-yl-amine]"
384,5540,"CNC1CCN(c2nc(-c3c(F)cccc3F)c3ccccc3n2)CC1 [Example 151, {1-[4-(2,6-Difluoro-phenyl)-quinazolin-2-yl]-piperidin-4-yl}-methyl-amine]"
11.4,52.8,"Fc1ccc2c(-c3c(F)cccc3F)nc(C3CCNCC3)nc2c1 [Example 162, 4-(2,6-Difluoro-phenyl)-7-fluoro-2-piperidin-4-yl-quinazoline]"
28.6,119,"Clc1cccc(-c2nc(N3CCNCC3)nc3ccccc23)c1 [Example 113, 4-(3-chloro-phenyl)-2-piperazin-1-yl-quinazoline]"
43.1,76.5,"COc1ccccc1-c1nc(N2CCNCC2)nc2cc(F)ccc12 [Example 136, 4-(2-Methoxy-phenyl)-7-fluoro-2-piperazin-1-yl-quinazoline]"
67.2,49,"Cc1cc(F)ccc1-c1nc(N2CCNCC2)nc2cc(Cl)ccc12 [Example 118, 7-Chloro-4-(4-fluoro-2-methyl-phenyl)-2-piperazin-1-yl-quinazoline]"
21.9,50.6,"N[C@@H]1CCN(c2nc(-c3c(F)cccc3F)c3ccc(F)cc3n2)C1 [Example 93, R-1-[4-(2,6-Difluoro-phenyl)-7-fluoro-quinazolin-2-yl]-pyrrolidin-3-ylamine]"
123,> 10000,"NCCCNc1nc(-c2cccc(F)c2F)c2ccccc2n1 [Example 159, N1-[4-(2,3-Difluoro-phenyl)-quinazolin-2-yl]-propane-1,3-diamine]"
35.5,11.4,"Clc1ccc2nc(N3CCNCC3)nc(-c3ccccc3)c2c1 [Example 128, 6-Chloro-4-phenyl-2-piperazin-1-yl-quinazoline]"

# Second part, the compound before the results:
Compound,Ki [1] [nM],Ki [2] [nM]
"Fc1ccc2c(-c3cccc(F)c3F)nc(N3CCNCC3)nc2c1 [Example 111, 4-(2,3-Difluoro-phenyl)-7-fluoro-2-piperazin-1-yl-quinazoline]",18.6,37.1
"C[C@H]1CNCCN1c1nc(-c2c(F)cccc2Cl)c2ccccc2n1 [Example 85, S-4-(2-Chloro-6-fluoro-phenyl)-2-(2-methyl-piperazin-1-yl)-quinazoline]",26.3,265
"Fc1ccc(-c2nc(N3CCNCC3)nc3cc(F)c(F)cc23)c(F)c1 [Example 147, 4-(2,4-Difluoro-phenyl)-6,7-difluoro-2-piperazin-1-yl-quinazoline]",28,25.6
"C[C@H]1CNCCN1c1nc(-c2ccccc2)c2ccc(F)cc2n1 [Example 106, S-′7-Fluoro-2-(2-methyl-piperazin-1-yl)-4-phenyl-quinazoline]",18.3,49.7
"CN1CCN(c2nc(-c3c(F)cccc3F)c3ccc(F)cc3n2)CC1 [Example 83, 4-(2,6-Difluoro-phenyl)-7-fluoro-2-(4-methyl-piperazin-1-yl)-quinazoline]",37.6,314
"C[C@H]1CNCCN1c1nc(-c2cccc(F)c2F)c2ccccc2n1 [Example 88, S-4-(2,3-Difluoro-phenyl)-2-(2-methyl-piperazin-1-yl)-quinazoline]",18.9,69.3
"R-4-(2,4-Difluoro-phenyl)-7-fluoro-2-(2-methyl-piperazin-1-yl)-quinazoline [Example 138]",35.4,24.6
"C[C@H]1CNCCN1c1nc(-c2c(F)cccc2F)c2ccc(F)cc2n1 [Example 107, S-4-(2,6-Difluoro-phenyl)-7-fluoro-2-(2-methyl-piperazin-1-yl)-quinazoline]",47.3,30.8
"Fc1cccc(F)c1-c1nc(NC2CCNCC2)nc2ccccc12 [Example 148, [4-(2,6-Difluoro-phenyl)-quinazolin-2-yl]-piperidin-4-yl-amine]",267,4060
"Fc1ccc2c(-c3ccc(F)c(F)c3)nc(N3CCNCC3)nc2c1 [Example 119, 4-(3,4-Difluoro-phenyl)-7-fluoro-2-piperazin-1-yl-quinazoline]",7.3,22.7
"Fc1ccc2c(-c3c(F)cccc3F)nc(N[C@@H]3CCNC3)nc2c1 [Example 84, R-[4-(2,6-Difluoro-phenyl)-7-fluoro-quinazolin-2-yl]-pyrrolidin-3-yl-amine]",49.8,653
"CC(C)[C@H]1CNCCN1c1nc(-c2ccc(F)cc2F)c2ccccc2n1 [Example 167, S-4-(2,4-Difluoro-phenyl)-2-(2-isopropyl-piperazin-1-yl)-quinazoline]",66.1,68.8
"Fc1cc(F)cc(-c2nc(N3CCNCC3)nc3ccccc23)c1 [Example 126, 4-(3,5-difluoro-phenyl)-2-piperazin-1-yl-quinazoline]",3.7,107
"C[C@H]1CNCCN1c1nc(-c2ccc(F)cc2F)c2ccccc2n1 [Example 82, S-4-(2,4-Difluoro-phenyl)-2-(2-methyl-piperazin-1-yl)-quinazoline]",19.4,64.1
"COc1cccc(-c2nc(N3CCNCC3)nc3ccccc23)c1 [Example 90, 4-(3-methoxy-phenyl)-2-piperazin-1-yl-quinazoline]",14.6,152
"Fc1ccc2c(-c3ccccc3C(F)(F)F)nc(N3CCNCC3)nc2c1 [Example 160, 7-Fluoro-2-piperazin-1-yl-4-(2-trifluoromethyl-phenyl)-quinazoline]",60.7,976
"Fc1ccc2c(-c3cccc(F)c3F)nc(N[C@@H]3CCNC3)nc2c1 [Example 116, R-[4-(2,3-Difluoro-phenyl)-7-fluoro-quinazolin-2-yl]-pyrrolidin-3-yl-amine]",138,963
"Clc1ccc(-c2nc(N3CCNCC3)nc3ccccc23)cc1Cl [Example 115, 4-(3,4-dichloro-phenyl)-2-piperazin-1-yl-quinazoline]",114,332
"Fc1cccc(F)c1-c1nc(N[C@H]2CCNC2)nc2ccccc12 [Example 101, S-[4-(2,6-Difluoro-phenyl)-quinazolin-2-yl]-pyrrolidin-3-yl-amine]",7.5,4870
"Fc1cccc(F)c1-c1nc(N[C@@H]2CCNC2)nc2ccccc12 [Example 99, R-[4-(2,6-Difluoro-phenyl)-quinazolin-2-yl]-pyrrolidin-3-yl-amine]",45.7,2900
"CNC1CCN(c2nc(-c3ccc(F)cc3F)c3ccccc3n2)C1 (stereo not drawn) [Example 150, {1-[4-(2,4-Difluoro-phenyl)-quinazolin-2-yl]-pyrrolidin-3-yl}-methyl-amine]",41.5,2700
"Fc1ccc(-c2nc(N[C@@H]3CCNC3)nc3cc(F)ccc23)c(F)c1 [Example 143, R-[4-(2,4-Difluoro-phenyl)-7-fluoro-quinazolin-2-yl]-pyrrolidin-3-yl-amine]",17.9,9.3
"Fc1ccc2c(-c3nccs3)nc(N3CCNCC3)nc2c1 [Example 135, 7-Fluoro-2-piperazin-1-yl-4-thiazol-2-yl-quinazoline]",56.8,313
"Fc1cc2nc(N3CCNCC3)nc(-c3c(F)cccc3F)c2cc1F [Example 146, 4-(2,6-Difluoro-phenyl)-6,7-difluoro-2-piperazin-1-yl-quinazoline]",31.5,19
